{"source": "patent US8669395B2", "about": "“Optically active 4-amino-3-(4-chlorophenyl)butanoic acid” (Sumitomo Chemical Company, Limited, priority 2009, dated 2014)", "key": {"[1]": {"test": "differential scanning calorimetry (DSC), Test Example 1", "assay_type": "physicochemical", "details": "for Endothermic peak / Exothermic peak: DSC, 25 to 500° C., 10° C./minute, air-tightly closed SUS container", "experimental": "About the DSC measurement, for example, a differential scanning calorimeter of an EXTER 6000 type, manufactured by SII Nano Technology Inc., is used to make it possible to make the measurement under the following conditions: […]\nmeasuring temperature range: 25 to 500° C., temperature-raising rate: 10° C./minute, container: air-tightly closed SUS, sample amount: about 0.4 to 0.7 mg, reference: α-alumina having a weight of about 0.6 mg, and atmospheric gas flow rate: dried nitrogen, about 70 mL/minute.\nAbout each of crystal A yielded according to the same process in Example 1, and crystal B yielded according to the same process in Comparative Example 1, a device manufactured by SII Nano Technology Inc., EXTER 6000, was used to measure the DSC thereof under differential scanning calorie analysis conditions described below.\n(Differential Scanning Calorie Analysis Conditions)"}, "[2]": {"test": "solubility in 100 g of water, Test Example 2", "assay_type": "physicochemical", "experimental": "About each of crystal A yielded according to the same process in Example 1, and crystal B yielded according to the same process in Comparative Example 1, the solubility thereof in 100 g of water was measured."}}, "data": [{"smiles": "NC[C@H](CC(=O)O)c1ccc(Cl)cc1", "note": "[Crystal A, (R)-4-amino-3-(4-chlorophenyl)butanoic acid]", "values": [{"measurement": "Endothermic peak", "setting": "[1]", "value": 203, "unit": "°C"}, {"measurement": "Exothermic peak", "setting": "[1]", "value": 386, "unit": "°C"}, {"measurement": "thermal stability", "setting": "[1]; concluded from the DSC endothermic and exothermic peaks, compared with crystal B", "value": "far better in thermal stability than crystal B"}, {"measurement": "solubility in 100 g of water", "setting": "[2]; 25° C.", "value": 0.88, "unit": "g"}, {"measurement": "solubility in 100 g of water", "setting": "[2]; 40° C.", "value": 1.16, "unit": "g"}, {"measurement": "solubility in 100 g of water", "setting": "[2]; 75° C.", "value": 2.20, "unit": "g"}]}, {"smiles": "NC[C@H](CC(=O)O)c1ccc(Cl)cc1", "note": "[Crystal B, (R)-4-amino-3-(4-chlorophenyl)butanoic acid, reference compound]", "values": [{"measurement": "Endothermic peak", "setting": "[1]", "value": 187, "unit": "°C"}, {"measurement": "Exothermic peak", "setting": "[1]", "value": 349, "unit": "°C"}, {"measurement": "solubility in 100 g of water", "setting": "[2]; 25° C.", "value": 1.98, "unit": "g"}, {"measurement": "solubility in 100 g of water", "setting": "[2]; 55° C.", "value": 2.59, "unit": "g"}, {"measurement": "solubility in 100 g of water", "setting": "[2]; 75° C.", "value": 2.86, "unit": "g"}]}]}
